Measured values reported in PubChem BioAssay AID463203 (Broad Institute, 2010).
Calls of active or inactive are those of the source.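 How the source made its calls: active means more than half of replicate measurements showing over 20% loss of kinase signal relative to plate controls; inconclusive means some but at most half of replicates over 20% loss; inactive means no replicate over 20% signal loss.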

Target: Glycogen synthase kinase-3 alpha (Homo sapiens) (UniProt P49840)
Assay: concentration-response blocking of human GSK3A – biochemical, luminescence, cell-free homogeneous, retest, dose response (AID 463203)
Conditions: GSK-3 alpha enzyme, ADP-Glo luminescence, 60 min

Glycogen synthase kinase-3 alpha (Homo sapiens), sequence (P49840 whole entry, looked up): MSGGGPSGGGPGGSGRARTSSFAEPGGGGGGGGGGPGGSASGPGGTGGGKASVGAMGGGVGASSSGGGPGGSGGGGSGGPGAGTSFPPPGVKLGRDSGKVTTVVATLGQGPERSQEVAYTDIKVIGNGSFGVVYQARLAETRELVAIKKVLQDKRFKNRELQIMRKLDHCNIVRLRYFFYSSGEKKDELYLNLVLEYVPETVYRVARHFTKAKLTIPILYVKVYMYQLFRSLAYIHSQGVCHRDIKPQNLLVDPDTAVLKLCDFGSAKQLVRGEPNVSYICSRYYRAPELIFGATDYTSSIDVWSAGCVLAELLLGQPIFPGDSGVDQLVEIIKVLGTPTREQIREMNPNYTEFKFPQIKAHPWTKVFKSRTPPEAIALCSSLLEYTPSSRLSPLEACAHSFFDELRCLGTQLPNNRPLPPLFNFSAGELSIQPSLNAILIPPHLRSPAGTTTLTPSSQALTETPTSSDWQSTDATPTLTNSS

Compound	AC50
COc1ccc(CC(=S)N2CCOCC2)cc1OC	> 30 µM (inactive)
CCCCc1ccc(NC(=O)N[C@H](C(=O)O)C(C)C)cc1	> 30 µM (inactive)
O=C(O)COc1ccc2c(c1)O/C(=C\c1cccs1)C2=O	26.2 µM
N#Cc1c(Nc2ccccc2)c(/C=N/NCCO)c[nH]c1=O	> 30 µM (inactive)
COc1ccccc1C(=O)O/N=C(\N)c1ccccn1	> 30 µM (inactive)
Cc1c2c(n3c(nc4ccccc43)c1C#N)N(CCN(C)C)CC2	21.7 µM
C/C(=N\NC(=O)c1nnn(-c2nonc2N)c1CN1CCCCCC1)c1ccc(Br)cc1	29.7 µM
CCOc1ccc(S(=O)(=O)Nc2cccc(C(=O)NCCCn3ccnc3)c2)cc1	> 30 µM (inactive)
O=C(O)c1cccc2c1C(=O)c1ccccc1C2=O	> 30 µM (inactive)
CC(=O)Oc1ccc2ccc(=O)oc2c1	> 30 µM (inactive)
COc1ccccc1CC(=O)N1CCOCC1	> 30 µM (inactive)
COc1ccc(-c2cc(=O)c3c(O)cc(O)cc3o2)cc1	4.21 µM
CCn1c2ccccc2c2nnc(SCC(N)=O)nc21	15.4 µM
COc1cccc(-c2c(C(=O)N/N=C(\C)c3cccs3)nnn2-c2nonc2N)c1	1.61 µM
COc1cc(/C=N/NC(=O)c2cccs2)ccc1O	> 30 µM (inactive)
COc1c(NC(C)=O)c2ccccc2c2ccccc12	> 30 µM (inactive)
Cc1cc(C)c(/C=N/NC(=O)c2nnn(-c3nonc3N)c2CN2CCC(C)CC2)c(C)c1	> 30 µM (inactive)
Cc1nc(SCCC(C)C)c([N+](=O)[O-])[nH]1	> 30 µM (inactive)
CCC(=NCc1cccnc1)c1c(O)n(C2CCCCC2)c(=O)[nH]c1=O	> 30 µM (inactive)
O=C1c2cnc3nc(SCc4ccccc4)nn3c2CC2c3ccccc3CCN12 (configuration not stated)	> 30 µM (inactive)
CN(C)c1ccc(/C=N/NC(=O)c2ccc(Cl)cc2)cc1	> 30 µM (inactive)

Compound	AC50
Cc1c(C(=O)N2CCOCC2)oc2ccc(S(=O)(=O)N3CCCCCC3)cc12	> 30 µM (inactive)
O=C1c2c(O)ccc(O)c2C(=O)c2c(NCCNCCO)ccc(NCCNCCO)c21	28.3 µM
COC1OC(COC(=O)c2ccccc2)C(OC(=O)c2ccccc2)C1OC(=O)c1ccccc1 (configuration not stated)	> 30 µM (inactive)
COc1ccc(/C=N/NC(=O)CSCc2ccc([N+](=O)[O-])cc2)cc1OC	> 30 µM (inactive)
CN(Cc1c(C(=O)N/N=C/c2ccccc2)nnn1-c1nonc1N)C1CCCCC1	> 30 µM (inactive)
CC1(C)CC(=O)c2cnc(NCC3CCCO3)nc2C1 (configuration not stated)	> 30 µM (inactive)
CC(C)CNc1cc(N2CCCC2)ccc1[N+](=O)[O-]	> 30 µM (inactive)
COc1ccc(NC(=O)Nc2cc(F)ccc2C)cc1	> 30 µM (inactive)
Cc1ccccc1CSc1nnc(-c2ccncc2)n1C	> 30 µM (inactive)
C=CCSc1ncnc2c1oc1nc3c(cc12)COC(C)(C)C3	> 30 µM (inactive)
Oc1ccc2c(c1)oc1cc(O)ccc12	12 µM
CN(CCO)c1ncnc2c1sc1nc(N3CCOCC3)c3c(c12)CCC3	> 30 µM (inactive)
COC1(OC)N=C(N)C2(C#N)C(c3ccc(C)cc3)C12C#N (configuration not stated)	> 30 µM (inactive)
COc1ccc(-c2cn3cccnc3n2)cc1NC(=O)C(C)C	> 30 µM (inactive)
COc1ccc2c3c(cccc13)C(=O)CC2	> 30 µM (inactive)
CCOC(=O)C1=C(O)/C(=C\c2sccc2C)N=C1C	> 30 µM (inactive)
COc1ccc(N=Cc2c(O)[nH]c3ccccc23)cc1	19.8 µM
Cc1ccc(CSCCNC(=O)c2ccc(C)cc2)cc1	> 30 µM (inactive)
C#CCOCCOCCOCCNc1nc(N2CCOCC2)nc(N2CCN(C(=O)[C@H](CCC(=O)O)n3cc([C@@H](N)CCCCN)nn3)CC2)n1	> 30 µM (inactive)
COc1ccc2[nH]c(C)c(CN3CCCCC3)c(=O)c2c1	> 30 µM (inactive)
COc1ccc(/C=N\NC(=O)c2ccccc2Br)cc1COc1ccccc1	> 30 µM (inactive)
